Several values for one entry are separate records, joined by “and”; a condition that tells them apart may be missing. Equal values may be shown once. Toxic doses and inconclusive results are not listed. Rule for the calls: active = survival T/C of 150% or more; inactive = T/C below 125% in these data.
Tested on: BDF1 mice, P388 leukemia ip, median survival T/C
Assay: NCI In Vivo Anticancer Drug Screen. Data for tumor model P388 Leukemia (intraperitoneal) in B6D2F1 (BDF1) mice
Details: endpoint: median survival time, higher = longer survival
Procedure, shortened: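 Read-out is survival of treated animals expressed relative to the vehicle group, as a T/C ratio.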

[1] = dose: 50.0 mg/kg/injection, schedule: Q01DX009 (ip), vehicle: saline with Tween-80
[2] = dose: 100.0 mg/kg/injection, schedule: Q04DX003 (ip), vehicle: saline
[3] = dose: 200.0 mg/kg/injection, schedule: Q04DX003 (ip), vehicle: saline
[4] = dose: 400.0 mg/kg/injection, schedule: Q04DX003 (ip), vehicle: saline
[5] = dose: 100.0 mg/kg/injection, schedule: Q04DX003 (ip), vehicle: saline with Tween-80
[6] = dose: 200.0 mg/kg/injection, schedule: Q04DX003 (ip), vehicle: saline with Tween-80
[7] = dose: 400.0 mg/kg/injection, schedule: Q04DX003 (ip), vehicle: saline with Tween-80
[8] = dose: 100.0 mg/kg/injection, schedule: Q01DX001 (ip), vehicle: saline with Tween-80
[9] = dose: 100.0 mg/kg/injection, schedule: Q01DX009 (ip), vehicle: saline with Tween-80
[10] = dose: 400.0 mg/kg/injection, schedule: Q01DX009 (ip), vehicle: saline with Tween-80
[11] = dose: 200.0 mg/kg/injection, schedule: Q01DX009 (ip), vehicle: saline with Tween-80

Measured: T/C

CCC(C)(CC(=O)O)CC(=O)O
inactive: dose: 3.12 mg/kg/injection, schedule: Q01DX009 (ip), vehicle: saline with Tween-80 95 % of control | dose: 6.25 mg/kg/injection, schedule: Q01DX009 (ip), vehicle: saline with Tween-80 112 % of control | dose: 12.5 mg/kg/injection, schedule: Q01DX009 (ip), vehicle: saline with Tween-80 116 % of control | dose: 25.0 mg/kg/injection, schedule: Q01DX009 (ip), vehicle: saline with Tween-80 87 % of control | [1] 87 % of control | [2] 110 % of control | [3] 120 % of control | [4] 120 % of control

CCN(CC)CCCNc1ncnc2onc(C)c12
inactive: [5] 101 % of control | [6] 97 % of control | [7] 106 % of control

CCCCN(CCCC)CC(O)c1ccnc2cc3c(cc12)OCO3 (configuration not stated)
inactive: dose: 25.0 mg/kg/injection, schedule: Q01DX001 (ip), vehicle: Klucel (hydroxypropylcellulose) (HPC) 104 % of control | dose: 50.0 mg/kg/injection, schedule: Q01DX001 (ip), vehicle: Klucel (hydroxypropylcellulose) (HPC) 104 % of control | dose: 100.0 mg/kg/injection, schedule: Q01DX001 (ip), vehicle: Klucel (hydroxypropylcellulose) (HPC) 100 % of control | [8] 100 % of control

CC(=O)Nc1ccc(S(=O)(=O)NC(N)=O)cc1
inactive: [9] 105 % of control | [10] 98 % of control

COc1cc(/C=C\C(=O)c2ccc(F)cc2)cc(OC)c1OC
inactive: [8] 98 % of control | dose: 200.0 mg/kg/injection, schedule: Q01DX001 (ip), vehicle: saline with Tween-80 96 % of control | dose: 400.0 mg/kg/injection, schedule: Q01DX001 (ip), vehicle: saline with Tween-80 100 % of control

N#CCCN1CCCCCC1
inactive: dose: 15.0 mg/kg/injection, schedule: Q01DX009 (ip), vehicle: saline with Tween-80 104 % of control | dose: 30.0 mg/kg/injection, schedule: Q01DX009 (ip), vehicle: saline with Tween-80 89 % of control | dose: 60.0 mg/kg/injection, schedule: Q01DX009 (ip), vehicle: saline with Tween-80 98 % of control

C(#CCN1CCOCC1)CCCN1CCOCC1
inactive: [2] 95 % of control | [3] 100 % of control | [4] 100 % of control

O=C(O)CCC1(c2ccccc2)CCCC1
inactive: dose: 25.0 mg/kg/injection, schedule: Q01DX009 (ip), vehicle: water 91 % of control | dose: 50.0 mg/kg/injection, schedule: Q01DX009 (ip), vehicle: water 88 % of control | dose: 100.0 mg/kg/injection, schedule: Q01DX009 (ip), vehicle: water 103 % of control | dose: 200.0 mg/kg/injection, schedule: Q01DX009 (ip), vehicle: water 97 % of control | dose: 300.0 mg/kg/injection, schedule: Q01DX009 (ip), vehicle: water 106 % of control

CCCCCCCCCCCC[N+](C)(C)CCC[N+](C)(C)CCCCCCCCCCCC
inactive: dose: 6.25 mg/kg/injection, schedule: Q01DX009 (ip), vehicle: saline 109 % of control | dose: 12.5 mg/kg/injection, schedule: Q01DX009 (ip), vehicle: saline 116 % of control

O=C(O)c1ccc(C2CC2)cc1
inactive: [9] 95 % of control | [11] 90 % of control | [10] 90 % of control

COc1ccc2c(c1)C(C)(C)Oc1cc3oc(C(=O)O)cc(=O)c3cc1-2
inactive: [5] 104 % of control | [6] 101 % of control | [7] 104 % of control

C[N+](C)(C)CC(O)CC#N (configuration not stated)
inactive: dose: 12.5 mg/kg/injection, schedule: Q01DX009 (ip), vehicle: Klucel (hydroxypropylcellulose) (HPC) 100 % of control | dose: 25.0 mg/kg/injection, schedule: Q01DX009 (ip), vehicle: Klucel (hydroxypropylcellulose) (HPC) 100 % of control | dose: 50.0 mg/kg/injection, schedule: Q01DX009 (ip), vehicle: Klucel (hydroxypropylcellulose) (HPC) 90 % of control

C[C@]12C[C@H](O)[C@H]3[C@@H](CCC4=CC(=O)CC[C@@]43C)[C@@H]1CC[C@@H]2C(=O)CO
inactive: dose: 45.0 mg/kg/injection, schedule: Q04DX003 (sc), vehicle: steriod suspending solution 95 % of control | dose: 65.0 mg/kg/injection, schedule: Q04DX003 (sc), vehicle: steriod suspending solution 100 % of control | dose: 200.0 mg/kg/injection, schedule: Q04DX003 (sc), vehicle: steriod suspending solution 115 % of control | dose: 264.0 mg/kg/injection, schedule: Q01DX009 (sc), vehicle: steriod suspending solution 109 % of control | dose: 264.0 mg/kg/injection, schedule: Q04DX003 (sc), vehicle: steriod suspending solution 110 % of control | dose: 400.0 mg/kg/injection, schedule: Q01DX009 (sc), vehicle: steriod suspending solution 122 % of control | dose: 400.0 mg/kg/injection, schedule: Q04DX003 (sc), vehicle: steriod suspending solution 110 % of control

O=S(=O)(O)C1(O)CCCCC1
inactive: dose: 100.0 mg/kg/injection, schedule: Q01DX009 (ip), vehicle: saline 105 % of control | [5] 95 % of control | [2] 109 % of control | dose: 200.0 mg/kg/injection, schedule: Q01DX009 (ip), vehicle: saline 100 % of control | [6] 104 % of control | [3] 104 % of control | dose: 400.0 mg/kg/injection, schedule: Q01DX009 (ip), vehicle: saline 105 % of control | [7] 100 % of control | [4] 100 % of control

CC1(C)N=C(N)Nc2nnc(-c3cccc(Cl)c3)n21
inactive: dose: 100.0 mg/kg/injection, schedule: Q01DX001 (ip), vehicle: saline sonified 105 % of control | dose: 200.0 mg/kg/injection, schedule: Q01DX001 (ip), vehicle: saline sonified 100 % of control | dose: 400.0 mg/kg/injection, schedule: Q01DX001 (ip), vehicle: saline sonified 100 % of control

O=C(c1ccccc1)N1CC=Cc2ccccc21
inactive: [1] 105 % of control | [9] 100 % of control | [11] 105 % of control

O=C(/C=C/c1ccc(Cl)cc1)c1ccc(Cl)cc1
inactive: [9] 100 % of control | [11] 90 % of control | [10] 90 % of control

FCc1nc2nc(Cl)c(Cl)nc2[nH]1
inactive: dose: 1.0 mg/kg/injection, schedule: Q01DX009 (ip), vehicle: saline 96 % of control | dose: 2.0 mg/kg/injection, schedule: Q01DX009 (ip), vehicle: saline 99 % of control and 100 % of control | dose: 4.0 mg/kg/injection, schedule: Q01DX009 (ip), vehicle: saline 90 % of control and 105 % of control | dose: 8.0 mg/kg/injection, schedule: Q01DX009 (ip), vehicle: saline 99 % of control | dose: 16.0 mg/kg/injection, schedule: Q01DX009 (ip), vehicle: saline 100 % of control | dose: 50.0 mg/kg/injection, schedule: Q04DX003 (ip), vehicle: saline 104 % of control | [2] 101 % of control

CN(C)CCC(=O)C(=Cc1ccc(Cl)c(Cl)c1)C(=O)CCN(C)C
inactive: dose: 50.0 mg/kg/injection, schedule: Q01DX005 (ip), vehicle: saline 109 % of control | dose: 100.0 mg/kg/injection, schedule: Q01DX005 (ip), vehicle: saline 114 % of control

CCOC(=O)c1cc([N+](=O)[O-])c(C)s1
inactive: dose: 100.0 mg/kg/injection, schedule: Q01DX009 (sc), vehicle: olive oil, sesame oil, peanut oil 100 % of control | dose: 100.0 mg/kg/injection, schedule: Q04DX003 (sc), vehicle: olive oil, sesame oil, peanut oil 95 % of control | dose: 200.0 mg/kg/injection, schedule: Q01DX009 (sc), vehicle: olive oil, sesame oil, peanut oil 91 % of control | dose: 200.0 mg/kg/injection, schedule: Q04DX003 (sc), vehicle: olive oil, sesame oil, peanut oil 95 % of control | dose: 400.0 mg/kg/injection, schedule: Q01DX009 (sc), vehicle: olive oil, sesame oil, peanut oil 100 % of control | dose: 400.0 mg/kg/injection, schedule: Q04DX003 (sc), vehicle: olive oil, sesame oil, peanut oil 100 % of control
